Read-outs that look alike come from different tables or passages of the source.
Test system: C. albicans SC 5314
Experiment: Single-dose intravenous treatment of systemic candidiasis in mice
Assay type: in vivo
Conditions: Candida albicans, SC5314, iv
Method: Female Swiss Webster mice were infected intraveneously with 5 x 10⁶ blastospores of C. albicans SC 5314 and treated one time with either ABLC or amphotericin B, five hours later. The amphotericin B was diluted in 5% dextrose for intravenous injection into the experimental mice. The ABLC formulation was also administered intravenously.

C[C@@H]1[C@H](O)[C@@H](C)/C=C/C=C/C=C/C=C/C=C/C=C/C=C/[C@H](O[C@@H]2O[C@H](C)[C@@H](O)[C@H](N)[C@@H]2O)C[C@@H]2O[C@](O)(C[C@@H](O)C[C@@H](O)[C@H](O)CC[C@@H](O)C[C@@H](O)CC(=O)O[C@H]1C)C[C@H](O)[C@H]2C(=O)O [Amphotericin B]
ED50 (5 h, read-out: ED₅₀(mg AMB/kg) Clearance): 0.7 mg/kg
ED50 (5 h, read-out: ED₅₀(mg AMB/kg) Survival): 0.46 mg/kg
ED50 (read-out: survival ED₅₀): 0.46 mg/kg
ED50 (single i.v. dose, infected mice, read-out: ED₅₀ based on kidney clearance): 0.7 mg/kg
